Reference: patent US5800991A, “Nucleotide or nucleoside photoaffinity compound modified antibodies, methods for their manufacture and use thereof as diagnostics and therapeutics” (University of Kentucky Research Foundation, priority 1996, dated 1998)
“Also recorded” adds a separate entry of the source. Where two headings read alike, the source gives them in different places.

Experiments:
antibody affinity site = test: Protection experiments with nucleotides and nucleosides against [γ^32 P]8-N3 ATP photolabeling; assay type: binding; conditions: data not shown
Procedure: (§1) Antibodies (3 μg) were incubated with 200 μM [γ^32 P]8-N3 ATP (5-30 mCi/μmole) in a final volume of 30 μL for 1 minute and photolyzed with a hand-held UV lamp at 254 nm for 1 min. The reactions were quenched with protein solubilizing mixture (10% SDS, 3.6M urea, 162 mM DTT, Pyronin Y and 20 mM Tris, pH 8.0) and analyzed by 6-14% gradient SDS-PAGE. The gels were stained with Coomassie Brilliant Blue, destained, and dried using a slab gel drier. ^32 P incorporation was detected by autoradiography and quantified by either scanning on an optical Image and Acquisition Analysis (Ambis, Inc.) or by cutting the appropriate band from the gel counting the radioactivity by liquid scintillation counting.
(§2) Antibody S1C5 (Maloney et al, Hybridoma, 4:191-209 (1985)), and 8019 (Koprowsky et al, Somat. Cell. Genet., 5:957-961 (1979)) each (3 μg) were incubated with increasing concentrations of [γ^32 P]8-N3 ATP for 1 min at 4° C. and photolyzed and analyzed as described above. Protection of photolabeling of S1C5 and 8019 was performed by incubating […] of antibodies with increasing concentrations of ATP for 2 min followed by incubation with 200 μM [γ^32 P]8-N3 ATP for 1 min and photolyzed and analyzed as described above. […]

SIC5 antibody [1] = test: Inhibition by ATP of [γ^32 P]-8-N3 ATP photoincorporation into SIC5 (S1C5) antibody; assay type: binding, murine
Procedure: The SIC5 antibody was again labeled, but in this example labeling was performed in the presence of increasing amounts of free ATP. Specifically,3 μg of the SIC5 antibody was photolyzed in the presence of 200 μm [γ^32 P]-8-N3 ATP using concentrations of ATP ranging from 0 to 700 μm. The labeled protein was again separated by SDS-PAGE; and radioactivity determined by liquid scintillation counting.
as §1
(§3) Antibody S1C5 (Maloney et al, Hybridoma, 4:191-209 (1985)), and 8019 (Koprowsky et al, Somat. Cell. Genet., 5:957-961 (1979)) each (3 μg) were incubated with increasing concentrations of [γ^32 P]8-N3 ATP for 1 min at 4° C. and photolyzed and analyzed as described above. Protection of photolabeling of S1C5 and 8019 was performed by incubating […] of antibodies with increasing concentrations of ATP for 2 min followed by incubation with 200 μM [γ^32 P]8-N3 ATP for 1 min and photolyzed and analyzed as described above. Protection experiments using amino acids were performed by incubating 3 μg of S1C5 antibody with increasing concentrations of amino acids for 2 min, followed by incubation with 200 μM [γ^32 P]8-N3 ATP for 1 min. Photolysis and analysis were performed as described.

8019 antibody [2] = test: Inhibition by ATP of [γ^32 P]8-N3 ATP photolabeling of 8019 antibody; assay type: binding; conditions: 8019, 200 μM [γ^32 P]8-N3 ATP, in words
Procedure: as §1, §2

SIC5 antibody [3] = test: Photolabeling saturation of SIC5 (S1C5) antibody with [γ^32 P]-8-N3 ATP; assay type: binding, murine
Procedure: In particular, 3 μg of SIC5 antibody in […] of photolysis buffer was photolyzed with increasing concentrations of [γ^32 P]-8-N3 ATP and then separated by SDS-PAGE. ^32 P incorporation was detected by autoradiography and quantified by scanning on Optical Imaging Acquisition Analysis (Ambis, Inc.). Photoincorporation was quantitatively confirmed by cutting the appropriate band and determining radioactivity by liquid scintillation counting. […] It can further be seen that there is a defined saturating concentration of probe at about 200 μm for both chains. This saturation plateau provides strong evidence that there exists a unique and limited number of affinity sites of the antibody which are bound by the [γ^32 P]-8-N3 ATP compound.
as §1, §3

8019 antibody [4] = test: Photolabeling saturation of 8019 antibody with [γ^32 P]8-N3 ATP; assay type: binding; conditions: 8019, Example 10
Procedure: as §1, §2

S1C5 antibody [5] = test: Quantitative immuno-precipitation of [γ^32 P]8-N3 ATP labeled S1C5 (stoichiometry); assay type: binding, murine; conditions: triplicate experiments
Description: Amino acid sequence of S1C5 and 8019 were deduced from the cloned and sequenced V genes (FIG. 12c). The identified peptides from photoaffinity labeling corresponded to sequences located in the variable Ig domain. The peptides eluted first (T1) from each antibody are derived from the CDR1 domain of the variable light chain extending into FR2. The second eluted peptides (T2) are from the CDR3-FR4 region of the variable heavy chain domain. It is striking that both peptides included invariant aromatic residues, Trp H103 in the VH domain and the highly conserved Tyr L36 within the VL domain.

S1C5 antibody [6] = test: Protection of S1C5 photolabeling by amino acids; assay type: binding, murine; conditions: 200 μM [γ^32 P]8-N3 ATP
Procedure: as §1, §2

[7] = tested on: murine B-cell tumor idiotype 38C13; test: Competition of γ^32 P-labeled S1C5 binding to its cellular target by unlabeled antibody; assay type: cell-based; conditions: 38C13, data not shown
Procedure: (§4) To determine whether the modification of this site affects antigen recognition the binding of photolabeled S1C5 (IgG2a, κ) and 8019 (IgG1, κ) to their respective antigens was tested, S1C5 is specific for a murine B-cell tumor idiotype 38C13 (13) and 8019 recognizes the CEA antigen (Koprowsky et al, Somat. Cell. Genet., 5:957-961 (1979)), expressed by the LS17T4 tumor cell line. […] Also, these same antibodies were photomodified with biotinylated 8-N3 adenosine and used in FACS. […] A comparison of the photoaffinity biotinylated antibodies with conventionally biotinylated antibodies in FACS produced nearly identical staining (manuscript submitted).

38C13 tumor cells = test: FACS of biotinylated 8-azidoadenosine labeled S1C5; assay type: cell-based, murine; conditions: biotinylated 8-N3 adenosine modified antibody
Procedure: (§5) Tumor cells (38C13 and LS174T, 1×10^6) were incubated with biotinylated 8-azidoadenosine labeled antibody S1C5 or 8019 (manuscript submitted) for 60 min. on ice. After washing with 5% FCS/PBS, Neutralite Avidin-FITC (Southern Biotechnology Associates, Inc.) was added and incubated for 30 min., fixed and subjected to flow cytometry. FACS data were generated front a minimum of 9900 cells per sample.
as §4

[8] = tested on: CEA antigen, LS174T tumor cells; test: Competition of γ^32 P-labeled 8019 binding to its cellular target by unlabeled antibody; assay type: cell-based; conditions: data not shown
Procedure: as §4

LS174T tumor cells = test: FACS of biotinylated 8-azidoadenosine labeled 8019; assay type: cell-based; conditions: biotinylated 8-N3 adenosine modified antibody
Procedure: as §5, §4

[N-]=[N+]=Nc1nc2c(N)ncnc2n1[C@@H]1O[C@H](CO)[C@@H](O)[C@H]1O [8-azidoadenosine]
binding relative to 8-N3 ATP (antibody affinity site): tighter binding than 8-N3 ATP

Nc1ncnc2c1ncn2[C@@H]1O[C@H](COP(=O)(O)OP(=O)(O)OP(=O)(O)O)[C@@H](O)[C@H]1O [ATP]
IC50 (SIC5 antibody [1]; 200 μm [γ^32 P]-8-N3 ATP, ATP 0 to 700 μm, Example 2, read-out: ATP concentration for 50% inhibition of labeling): ~350 µM
IC50 (SIC5 antibody [1]; ATP vs [γ^32 P]-8-N3 ATP, FIG. 2 legend, read-out: 50% inhibition of photoincorporation): ~350 µM
protection against photolabeling by ATP (SIC5 antibody [1]; S1C5, 200 μM [γ^32 P]8-N3 ATP, in words): Photolabeling could be prevented; also recorded: photolabeling is inhibited by ATP
protection against photolabeling by ATP (8019 antibody [2]): Photolabeling could be prevented; also recorded: photolabeling is inhibited by ATP

[N-]=[N+]=Nc1nc2c(N)ncnc2n1[C@@H]1O[C@H](COP(=O)(O)OP(=O)(O)O[32P](=O)(O)O)[C@@H](O)[C@H]1O [[γ^32 P]-8-N3 ATP]
saturation of photolabeling (SIC5 antibody [3]; S1C5, Example 10): 150 to 175 µM
Kd (SIC5 antibody [3]; S1C5, Example 10, read-out: apparent Kd): 75 µM
saturating concentration of probe (SIC5 antibody [3]; [γ^32 P]-8-N3 ATP, both heavy and light chains, Example 1): about 200 μm
photoincorporation into heavy and light chains (SIC5 antibody [3]; in words, Example 1): covalently attaching to both antibody heavy and light chains; also recorded: covalently attached to both heavy and light chains
saturation of photolabeling (8019 antibody [4]): about 50 μM
Kd (8019 antibody [4]; read-out: apparent Kd): 25 µM
average number of molecules of 8-N3 ATP/Ig molecule (S1C5 antibody [5]): 1.9±0.2 molecules of 8-N3 ATP/Ig molecule

N[C@@H](Cc1c[nH]c2ccccc12)C(=O)O [tryptophan]
protection against photolabeling by amino acids (S1C5 antibody [6]): best protection

B1: S1C5: anti-B cell lymphoma idiotype antibody; specific for a murine B-cell tumor idiotype 38C13 (protein)
chain: QIVLTQSPAINSASLGERVTMTCTASSSVSSSYFHWYQQKQGSSPKLWIYTTSNLASGVPARFSGSGSGTSYSLTISSMEAEDAATYYCHQYHRSPLTFGAGTKLELKRAQVQLQQSDAILVKPGASVKISCKASGYTFTDHVIHWVKQRPEQLGEWIGFISPGNGDIRYNEKFKDKATADKSSSTAYMQLNSLTSEDSAVYFCKRSFYYYDDNYGDYWGQGTTLTVSSAK
modifications: photoaffinity label in the variable domains as tested: biotinylated 8-azidoadenosine (FACS) or [gamma-32P]8-N3ATP (cell binding competition); labelled residue not fixed
notes: anti-B cell lymphoma idiotype antibody; specific for a murine B-cell tumor idiotype 38C13
inhibition of γ^32 P-labeled antibody binding by unlabeled antibody [7]: inhibited on an apparent 1:1 ratio by unlabeled antibodies
binding to tumor cell targets by flow cytometry (38C13 tumor cells): recognized their specific tumor cell targets

B2: 8019: IgG1, κ antibody; recognizes the CEA antigen expressed by the LS17T4 tumor cell line (protein)
chain: DIVLTQSPASLSASVGETVTITCRASENIYSYLLWYQQKQGKSPQLLVYNAKTLAEGVPSRFSGSGSGTQFSLKINSLQPEDFGSYFCQHHFGTPWTFGGGTSLEIKRAEVNLEESGGGLVQPGGSMKLSCAASGFTESDAWMDWVRQSPEKGLEWVAEIRTKVNNHATYYAESVKGRFTISRDDSKSNVYLQMNSLRVEDTGIYYCTMAYYEAYWGQGTLVTSAAK
modifications: photoaffinity label in the variable domains as tested: biotinylated 8-azidoadenosine (FACS) or [gamma-32P]8-N3ATP (cell binding competition); labelled residue not fixed
notes: IgG1, κ antibody; recognizes the CEA antigen expressed by the LS17T4 tumor cell line
inhibition of γ^32 P-labeled antibody binding by unlabeled antibody [8]: inhibited on an apparent 1:1 ratio by unlabeled antibodies
binding to tumor cell targets by flow cytometry (LS174T tumor cells): recognized their specific tumor cell targets
